Reference: patent US9474765B2, “Composition for lipolysis, containing phosphatidylcholine, and preparation method therefor” (AMI Pharm Co., Ltd., priority 2013, dated 2016)

Experiments:
Albino C57BL/6 mice = experiment: Determination of tissue necrosis through visual inspection after subcutaneous abdominal injection; format: in vivo; details: 8 days after administration; for Tissue necrosis at the injected area (visual inspection): 0.2 ml s.c. into abdomen of obese mice, FIG. 8
Description: (§1) Albino C57BL/6 mice (4 weeks old) were fed with high fat diet (Research diet, 60% kcal lipid) to induce a high degree of obesity. Then, after 24 and 48 hours, 0.2 ml of saline solution (negative control group), injection compositions of Table 1, Lipobean, 2.5% DC were injected subcutaneously into the abdomen of the mice, respectively. Eight (8) days after the administration was completed, the mice were sacrificed.
Visual inspection was conducted on the subcutaneously injected areas of the sacrificed mice.

Prostaglandin E2 (PGE2) = experiment: PGE2 Assay on hind feet tissue samples; format: in vivo, mice; details: FIG. 7
Description: Prostaglandin E2 (PGE2) in the hind feet tissue samples of test animals in phosphatidylcholine (PC)-containing injection-administered test groups and sodium deoxycholate (DC)-administered group in various concentrations (PC 2.5%, PC 5%, DC 2.5%, PC 5%+DC 2.5%) was measured with PGE2 Assay (R&D System Inc., Minneapolis, USA). During cultivation, PGE2s in the hind feet tissue samples bound competitively with horse radish peroxidase (HRP)-labeled PGE2 to their mouse monoclonal antibodies. Unbound materials were removed by using washing buffer, while substrate solution was added to each well and left at room temperature with sunlight blocked. Then, stop solution was added, followed by measuring absorption value at 450 nm.

[1] = test system: Myeloperoxidase (MPO) activity; experiment: MPO Activity Colorimetric Assay on hind feet tissue samples; format: in vivo, mice; details: FIG. 4; comparison of groups
Description: Myeloperoxidase (MPO) activity was measured by using MPO Activity Colorimetric Assay Kit (BioVision, USA). The tissue samples of the hind feet of test animals in phosphatidylcholine (PC)-containing injection-administered test groups and sodium deoxycholate (DC)-administered group in various concentrations (PC 2.5%, PC 5%, DC 2.5%, PC 5%+DC 2.5%) were mixed in 4 times MPO assay buffer and centrifuged at 12,000 rpm for 10 minutes, followed by diluting each tissue sample with 25 μl of MPO assay buffer, respectively. The diluted samples were placed into standard, background sample of 96-well plate, while dividing reaction mix and background into their corresponding wells and cultivating at 25° C. for 120 minutes. Then, stop mix was added and left for 10 minutes. Subsequently, TNB reagent was added to equalize the total amount of each well to 150 μl, followed by sun blocking with aluminum foils and 10 minutes later measuring absorption value at 412 nm.

adipocytes = experiment: Observation of adipocytes in abdominal subcutaneous fats (H&E, optical microscope); format: in vivo, Albino C57BL/6 mice; details: 0.2 ml s.c. into abdomen of obese mice, FIG. 9
Description: as §1
The abdomen of the sacrificed mice was incised, followed by rapid extraction of subcutaneous fats and their fixation in 4% formaldehyde solution. After fixation, washing & dehydrating were conducted and treated with paraffin solution to prepare paraffin blocks. Then, those paraffin blocks were thin-sliced in the thickness of 4 μm which were then dyed with hematoxylin & eosin for an optical microscopic observation.
The size of adipocytes in the saline control group and the PC injection-administered group were measured.

Sprague-Dawley rats [2] = experiment: Measuring the thickness of the soles of the hind feet after injection (edema, erythema); format: in vivo
Description: 0.1 ml of the injectable compositions of the above Table 1, Lipobean (purchased from Ami Pharm Co., Ltd.; positive control) or 2.5% sodium deoxycholate (hereinafter, “DC”; saline solution was used as a solvent) were injected into the soles of the hind feet of 6 week-old, male Sprague-Dawley rats (weight: 170-200 g), respectively. The thickness of the soles was measured by using calipers at 1, 2, 3, and 4 hours after injection, while test performers were not aware of the order or the purpose of tests (i.e. blind study).

Sprague-Dawley rats [3] = experiment: Histological test of the soles (hematoxylin eosin); format: in vivo; details: 4 hours after administration, FIG. 3
Text: Four (4) hours after the above described administration, rats were sacrificed of which soles were removed and their skins were incised and fixated in 10% formalin solution. Then, they were dyed in hematoxylin eosin solution to observe their morphological changes.

## sodium deoxycholate [DC 2.5%]
Albino C57BL/6 mice; listed as 2.5% DC
  Tissue necrosis at the injected area (visual inspection): severe necrosis with perforation in the skin
Albino C57BL/6 mice; listed as DC
  Tissue necrosis at the injected area (visual inspection): severe tissue necrosis with perforation and fibrosis
Albino C57BL/6 mice; 0.2 ml s.c. into abdomen
  Fibrosis (autopsy): fibrosis was spread to the surrounding tissues
Prostaglandin E2 (PGE2)
  Level of PGE2 relative to phosphatidylcholine (PC)-administered test groups: ≥ 2 times
[1]
  MPO activity in hind feet tissue: overall higher MPO activity
adipocytes
  Inflammation in abdominal subcutaneous fat (histology): greater degree of inflammation than other groups
  Lipolysis in abdominal subcutaneous fat (histology): Almost no lipolysis effect
Sprague-Dawley rats [2]; 0 h, 0.1 ml injected into soles of hind feet, calipers
  Measurement of the thickness of the feet: 0.324
Sprague-Dawley rats [2]; 1 h after injection, 0.1 ml into soles of hind feet
  Measurement of the thickness of the feet: 0.720
Sprague-Dawley rats [2]; 2 h after injection, 0.1 ml into soles of hind feet
  Measurement of the thickness of the feet: 0.706
Sprague-Dawley rats [2]; 3 h after injection, 0.1 ml into soles of hind feet
  Measurement of the thickness of the feet: 0.682
Sprague-Dawley rats [2]; 4 h after injection, 0.1 ml into soles of hind feet
  Measurement of the thickness of the feet: 0.625
Sprague-Dawley rats [3]
  Edema and neutrophils in sole tissue (histology): both edema and neutrophils
